Values quoted from earlier work, collected in US12465608B2, “Osimertinib for use in the treatment of non-small cell lung cancer” (AstraZeneca AB, priority 2019, dated 2025).

How the values were obtained:
[1] = test system: patients with EGFR mutation-positive NSCLC
[2] = test system: patients with advanced EGFR mutation-positive NSCLC who were never- or light-former smokers; details: erlotinib combined with carboplatin plus paclitaxel; subgroup of patients with EGFR mutations
[3] = test system: patients with advanced mutation-positive EGFR (Ex19del or L858R) NSCLC; details: for median progression free survival (PFS): first-line therapy, FLAURA

| SMILES | PFS hazard ratio (HR) ([1]; dacomitinib vs gefitinib, 95% CI 0.47-0.74, p<0.0001) | median PFS ([1]; first line treatment, EGFR mutation-positive NSCLC) [months] | side effects, combination vs erlotinib monotherapy [2] | median progression free survival (PFS) [3] [months] | events of CNS progression, patients ([3]; irrespective of known or treated CNS metastases at trial entry) [%] | PFS hazard ratio (HR) ([3]; osimertinib vs erlotinib or gefitinib, 95% CI 0.37, 0.57, p<0.0001) | median CNS PFS ([3]; patients with CNS metastases on a baseline brain scan) | reduction in the risk of CNS progression ([3]; patients with CNS metastases on a baseline brain scan, vs standard EGFR-TKIs) [%] | CNS PFS HR ([3]; patients with CNS metastases on a baseline brain scan, vs standard EGFR-TKIs, 95% CI 0.26-0.86, p=0.014) |
| --- | --- | --- | --- | --- | --- | --- | --- | --- | --- |
| COc1cc2ncnc(Nc3ccc(F)c(Cl)c3)c2cc1NC(=O)/C=C/CN1CCCCC1 [dacomitinib, (2E)-N-{4-[(3-chloro-4-fluorophenyl)amino]-7-methoxyquinazolin-6-yl}-4-(piperidin-1-yl)but-2-enamide] | 0.59 | 14.7 |  |  |  |  |  |  |  |
| C#Cc1cccc(Nc2ncnc3cc(OCCOC)c(OCCOC)cc23)c1 [erlotinib] |  |  | more side effects | 10.2 |  |  |  |  |  |
| C=CC(=O)Nc1cc(Nc2nccc(-c3cn(C)c4ccccc34)n2)c(OC)cc1N(C)CCN(C)C [osimertinib, N-(2-{2-dimethylaminoethyl-methylamino}-4-methoxy-5-{[4-(1-methylindol-3-yl)pyrimidin-2-yl]amino}phenyl) prop-2-enamide] |  |  |  | 18.9 | 6 | 0.46 | not reached | 52 | 0.48 |
